Laboratory results taken from patent publication US10221163B2 (priority 2015, dated 2019).
Like-named read-outs stand apart in the source and are kept apart here.

Experiments:
IMP-1 = IMP-1 (Serratia marcescens, UniProt P52699); test: biochemical; format: biochemical; settings: fluorescence assay, CCF2-FA substrate, 2 pM enzyme, 2 hours at 25° C.; read-out: IMP-1 IC50
Summary of the method: (§1)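 Test compound, enzyme and the FRET cephalosporin substrate CCF2-FA are incubated together for 2 hours at 25° C. Cleavage is followed by fluorescence, and IC50 values are derived from semi-logarithmic inhibition curves fitted with a 4-parameter model.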

NDM-1 = NDM-1 (Klebsiella pneumoniae, UniProt C7C422); test: biochemical; format: biochemical; settings: fluorescence assay, CCF2-FA substrate, 1 pM enzyme, 2 hours at 25° C.; read-out: NDM-1 IC50
Summary of the method: as §1

VIM-1 = VIM-1 (Pseudomonas aeruginosa (strain ATCC 15692 / DSM 22644 / CIP 104116 / JCM 14847 / LMG 12228 / 1C / PRS 101 / PAO1), UniProt A0A0F7KYQ8); test: biochemical; settings: CCF2-FA substrate, 30 pM enzyme, 2 hours at 25° C.
Summary of the method: as §1

[1] = tested on: Escherichia coli expressing NDM-1 (CLB30005, CLB30016); format: cell-based; settings: with imipenem 1 μg/ml; 95% inhibition of bacterial growth
Summary of the method: (§2)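 Colonies grown overnight on blood agar at 35° C were suspended in saline, diluted 1:100 into 1.1×CAMHB and dispensed. Imipenem was added to 1 μg/ml, then test compound. After 22 hours to 24 hours at 35° C, absorbance was recorded.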

[2] = tested on: Klebsiella pneumoniae expressing VIM-1 (IHMA599644); format: cell-based; settings: with imipenem 1 μg/ml; 95% inhibition of bacterial growth
Summary of the method: as §2

[3] = tested on: Serratia marcescens expressing IMP-1 (CL5741); format: cell-based; settings: with imipenem 1 μg/ml; 95% inhibition of bacterial growth
Summary of the method: as §2

[4] = tested on: Pseudomonas aeruginosa efflux+ (MB9798), IMP-1; format: cell-based; settings: concentration restoring susceptibility to imipenem at 2 μg/mL in the presence of a class A, C, D serine β-lactamase inhibitor closely related to relebactam
Summary of the method: (§3)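 Steps: add fixed imipenem and/or ceftazidime (usually CLSI breakpoint) and fixed AmpC-directed class A/C inhibitor to microbroth MIC wells; titrate MBL inhibitor; record concentration regaining susceptibility for each PAO1-derived strain; divide efflux+ by efflux− value.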

[5] = tested on: Pseudomonas aeruginosa efflux− (MB9799), IMP-1; format: cell-based; settings: concentration restoring susceptibility to imipenem at 2 μg/mL in the presence of a class A, C, D serine β-lactamase inhibitor closely related to relebactam
Summary of the method: as §3

[6] = tested on: Pseudomonas aeruginosa MB9798 vs MB9799; settings: ratio MITC95 PA_9798/MITC95 PA_9799
Summary of the method: as §3

[7] = fluorescence assay, read-out: VIM-1 IC50

IMP-1, sequence (P52699 whole entry, looked up, species assumed): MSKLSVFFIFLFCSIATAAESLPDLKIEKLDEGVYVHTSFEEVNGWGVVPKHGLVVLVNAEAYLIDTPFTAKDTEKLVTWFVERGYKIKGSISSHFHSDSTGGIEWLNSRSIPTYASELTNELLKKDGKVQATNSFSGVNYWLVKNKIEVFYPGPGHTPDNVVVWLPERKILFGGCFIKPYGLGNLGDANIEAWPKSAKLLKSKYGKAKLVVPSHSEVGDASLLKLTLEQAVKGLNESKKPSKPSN
NDM-1, sequence (C7C422 whole entry, looked up, species assumed): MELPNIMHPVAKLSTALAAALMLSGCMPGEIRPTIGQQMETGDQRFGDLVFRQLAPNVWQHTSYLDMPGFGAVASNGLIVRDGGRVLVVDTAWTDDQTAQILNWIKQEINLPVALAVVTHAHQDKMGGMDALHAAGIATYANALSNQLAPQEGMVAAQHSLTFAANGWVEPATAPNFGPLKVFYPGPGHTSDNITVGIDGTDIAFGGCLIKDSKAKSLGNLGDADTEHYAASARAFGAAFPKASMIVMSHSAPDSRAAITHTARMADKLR

SMILES	IC50 (IMP-1) [nM]	IC50 (NDM-1) [nM]	IC50 (VIM-1; VIM-1 IC50, fluorescence assay) [nM]	Escherichia coli expressing NDM-1 (CLB30016) MITC95 [1] [µM]	Klebsiella pneumoniae expressing VIM-1 (IHMA599644) MITC95 [2] [µM]	Serratia marcescens expressing IMP-1 (CL5741) MITC95 [3] [µM]	P. aeruginosa expressing IMP-1, efflux + (MB9798) MITC95 [4] [µM]	P. aeruginosa expressing IMP-1, efflux − (MB9799) MITC95 [5] [µM]	Efflux ratio [6]	IC50 (VIM-1; [7]) [nM]
Nc1nc2c(-c3ccc(S(=O)(=O)NC4CN5CCC4CC5)c(S(N)(=O)=O)c3-c3nnn[nH]3)cccc2s1.O=C(O)C(F)(F)F (stereo not drawn) [Example 97, 3-(4-(2-aminobenzo[d]thiazol-4-yl)-2-sulfamoyl-3-(1H-tetrazol-5-yl)phenylsulfonamido)quinuclidin-1-ium 2,2,2-trifluoroacetate]	0.383	0.0214	0.222	3.125	3.125	3.125	1.563	1.563	1.00	
CN(CCc1ccncc1)S(=O)(=O)c1ccc(-c2cccc3sc(N)nc23)c(-c2nnn[nH]2)c1S(N)(=O)=O.O=C(O)C(F)(F)F [Example 100, 4-(2-(4-(2-aminobenzo[d]thiazol-4-yl)-N-methyl-2-sulfamoyl-3-(1H-tetrazol-5-yl)phenylsulfonamido)ethyl)pyridin-1-ium 2,2,2-trifluoroacetate]	3.26	3.88	12.6	50	200	25	200	6.25	32.00	
CC1(CN)CN(S(=O)(=O)c2ccc(-c3cccc4sc(N)nc34)c(-c3nnn[nH]3)c2S(N)(=O)=O)C1.O=C(O)C(F)(F)F [Example 101, (1-((4-(2-aminobenzo[d]thiazol-4-yl)-2-sulfamoyl-3-(1H-tetrazol-5-yl)phenyl)sulfonyl)-3-methylazetidin-3-yl)methanaminium 2,2,2-trifluoroacetate]	1.25	0.288	0.744	3.125	6.25	3.125	3.125	3.125	1.00	
CN1CCC(CNS(=O)(=O)c2ccc(-c3cccc4sc(N)nc34)c(-c3nnn[nH]3)c2S(N)(=O)=O)C1.O=C(O)C(F)(F)F (stereo not drawn) [Example 102, 3-((4-(2-aminobenzo[d]thiazol-4-yl)-2-sulfamoyl-3-(1H-tetrazol-5-yl)phenylsulfonamido)methyl)-1-methylpyrrolidin-1-ium 2,2,2-trifluoroacetate]	0.263	0.0324	0.194	3.125	3.125	1.563	0.7813	1.563	0.50	
Nc1nc2c(-c3ccc(S(=O)(=O)N[C@H]4CO[C@H]5[C@@H]4OC[C@H]5N)c(S(N)(=O)=O)c3-c3nnn[nH]3)cccc2s1.O=C(O)C(F)(F)F [Example 103, (3R,3aR,6S,6aR)-6-(4-(2-aminobenzo[d]thiazol-4-yl)-2-sulfamoyl-3-(1H-tetrazol-5-yl)phenylsulfonamido)hexahydrofuro[3,2-b]furan-3-aminium 2,2,2-trifluoroacetate]	0.226	0.0293	0.196	3.125	3.125	3.125	3.125	1.563	2.00	
NCC1CN(S(=O)(=O)c2ccc(-c3cccc4sc(N)nc34)c(-c3nnn[nH]3)c2S(N)(=O)=O)CCO1.O=C(O)C(F)(F)F (stereo not drawn) [Example 104, (4-((4-(2-aminobenzo[d]thiazol-4-yl)-2-sulfamoyl-3-(1H-tetrazol-5-yl)phenyl)sulfonyl)morpholin-2-yl)methanaminium 2,2,2-trifluoroacetate]	1.24	0.229		1.563	6.25	3.125	3.125	1.563	2.00	1.59
CN(C1CNC1)S(=O)(=O)c1ccc(-c2cccc3sc(N)nc23)c(-c2nnn[nH]2)c1S(N)(=O)=O.O=C(O)C(F)(F)F [Example 105, 3-(4-(2-aminobenzo[d]thiazol-4-yl)-N-methyl-2-sulfamoyl-3-(1H-tetrazol-5-yl)phenylsulfonamido)azetidin-1-ium 2,2,2-trifluoroacetate]	1.18	0.206	1.14	1.563	6.25	1.563	1.563	1.563	1.00	
Nc1nc2c(-c3ccc(S(=O)(=O)NCc4ccccn4)c(S(N)(=O)=O)c3-c3nnn[nH]3)cccc2s1.O=C(O)C(F)(F)F [Example 106, 2-((4-(2-aminobenzo[d]thiazol-4-yl)-2-sulfamoyl-3-(1H-tetrazol-5-yl)phenylsulfonamido)methyl)pyridin-1-ium 2,2,2-trifluoroacetate]	0.379	0.0733		6.25	12.5	3.125	12.5	3.125	4.00	0.236
CN1CC(N(C)S(=O)(=O)c2ccc(-c3cccc4sc(N)nc34)c(-c3nnn[nH]3)c2S(N)(=O)=O)C1.O=C(O)C(F)(F)F [Example 107, 3-(4-(2-aminobenzo[d]thiazol-4-yl)-N-methyl-2-sulfamoyl-3-(1H-tetrazol-5-yl)phenylsulfonamido)-1-methylazetidin-1-ium 2,2,2-trifluoroacetate]	1.4	0.184		3.125	6.25	3.125	6.25	1.563	4.00	1.69
CO[C@H]1CNC[C@@H]1NS(=O)(=O)c1ccc(-c2cccc3sc(N)nc23)c(-c2nnn[nH]2)c1S(N)(=O)=O.O=C(O)C(F)(F)F [Example 108, (3S,4S)-3-(4-(2-aminobenzo[d]thiazol-4-yl)-2-sulfamoyl-3-(1H-tetrazol-5-yl)phenylsulfonamido)-4-methoxypyrrolidin-1-ium 2,2,2-trifluoroacetate]	0.336	0.0512		1.563	3.125	3.125	1.563	1.563	1.00	0.268
CC(N)CNS(=O)(=O)c1ccc(-c2cccc3sc(N)nc23)c(-c2nnn[nH]2)c1S(N)(=O)=O.O=C(O)C(F)(F)F (stereo not drawn) [Example 109, 1-(4-(2-aminobenzo[d]thiazol-4-yl)-2-sulfamoyl-3-(1H-tetrazol-5-yl)phenylsulfonamido)propan-2-aminium 2,2,2-trifluoroacetate]	0.44	0.0821	0.322	1.563	3.125	1.563	0.7813	1.563	0.50	
